# What was measured:
# JAK2 = JAK2 (Homo sapiens (Human), UniProt O60674); assay: Jak Biochemical HTRF Assay, JAK2; conditions: HTRF biochemical assay, GST-tagged catalytic domain; top concentration tested […]
# From the text: (§1) Jak Biochemical HTRF Assay Protocol
# (§2) Subsequent reagent additions employed an Agilent Bravo.
# JAK1 = JAK1 (Homo sapiens (Human), UniProt P23458); assay: Jak Biochemical HTRF Assay, JAK1; conditions: HTRF biochemical assay, GST-tagged catalytic domain; top concentration tested […]; read-out: JAK1 IC50
# From the text: as §1, §2
# JAK1, sequence (P23458 875-1153): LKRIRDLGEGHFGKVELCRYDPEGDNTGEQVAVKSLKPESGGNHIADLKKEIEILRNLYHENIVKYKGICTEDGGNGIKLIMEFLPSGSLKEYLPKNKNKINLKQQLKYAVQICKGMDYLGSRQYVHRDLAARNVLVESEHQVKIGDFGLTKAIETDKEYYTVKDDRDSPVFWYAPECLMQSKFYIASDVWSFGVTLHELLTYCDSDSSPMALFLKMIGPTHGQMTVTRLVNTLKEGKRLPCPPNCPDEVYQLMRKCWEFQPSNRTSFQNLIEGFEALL
# JAK2, sequence (O60674 849-1124): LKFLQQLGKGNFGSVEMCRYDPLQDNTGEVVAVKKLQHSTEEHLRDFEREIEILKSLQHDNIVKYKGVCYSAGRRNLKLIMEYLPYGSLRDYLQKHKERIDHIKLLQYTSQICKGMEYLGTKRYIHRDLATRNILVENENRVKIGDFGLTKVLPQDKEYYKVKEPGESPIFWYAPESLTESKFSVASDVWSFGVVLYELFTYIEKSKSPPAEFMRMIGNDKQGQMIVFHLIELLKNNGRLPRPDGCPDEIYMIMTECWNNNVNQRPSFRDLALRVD
structure (smiles),measurement,setting,value
"N#CCC1(n2cc(C(N)=O)c(Nc3ccnc(F)c3)n2)CCN(Cc2ccccc2F)CC1 [Example 22-9, 1-[4-(cyanomethyl)-1-(2-fluorobenzyl)piperidin-4-yl]-3-[(2-fluoropyridin-4-yl)amino]-1H-pyrazole-4-carboxamide]",IC50,JAK2,2 nM
same,IC50,JAK1,0.06 nM
"N#CCC1(n2cc(C(N)=O)c(Nc3ccnc(F)c3)n2)CCN(Cc2cccnc2F)CC1 [Example 22-23, 1-{4-(cyanomethyl)-1-[(2-fluoropyridin-3-yl)methyl]piperidin-4-yl}-3-[(2-fluoropyridin-4-yl)amino]-1H-pyrazole-4-carboxamide]",IC50,JAK2,6 nM
same,IC50,JAK1,0.1 nM
"CCOc1ccc(NC(=O)N2CC(CC#N)(n3cc(C(N)=O)c(Nc4ccccc4)n3)C2)cc1 [Example 38-26, 1-{3-(cyanomethyl)-1-[(4-ethoxyphenyl)carbamoyl]azetidin-3-yl}-3-(phenylamino)-1H-pyrazole-4-carboxamide]",IC50,JAK2,69 nM
same,IC50,JAK1,2 nM
"CC(C)(C)OC(=O)N1CCC(CC#N)(n2cc(C(N)=O)c(Nc3cc(F)ccn3)n2)CC1 [Example 13-5, tert-butyl 4-(4-carbamoyl-3-(4-fluoropyridin-2-ylamino)-1H-pyrazol-1-yl)-4-(cyanomethyl)piperidine-1-carboxylate]",IC50,JAK2,903 nM
same,IC50,JAK1,15 nM
"CCc1cccc(NC(=O)N2CC(CC#N)(n3cc(C(N)=O)c(Nc4ccccc4)n3)C2)c1 [Example 38-35, 1-{3-(cyanomethyl)-1-[(3-ethylphenyl)carbamoyl]azetidin-3-yl}-3-(phenylamino)-1H-pyrazole-4-carboxamide]",IC50,JAK2,144 nM
same,IC50,JAK1,8 nM
"CC(F)(F)C(=O)N1CCC(CC#N)(n2cc(C(N)=O)c(Nc3ccnc(F)c3)n2)CC1 [Example 34-40, 1-[4-(cyanomethyl)-1-(2,2-difluoropropanoyl)piperidin-4-yl]-3 [(2-fluoropyridin-4-yl)amino]-1H-pyrazole-4-carboxamide]",IC50,JAK2,2 nM
same,IC50,JAK1,0.1 nM
"CC(C)(C)OC(=O)N1CCC(CC#N)(n2cc(C(N)=O)c(Nc3ccncc3)n2)CC1 [Example 2-7, tert-butyl 4-[4-carbamoyl-3-(pyridin-4-ylamino)-1H-pyrazol-1-yl]-4-(cyanomethyl)piperidine-1-carboxylate]",IC50,JAK2,10 nM
same,IC50,JAK1,0.3 nM
"N#CCC1(n2cc(C(N)=O)c(Nc3ccnc(F)c3)n2)CCN(Cc2cn3ccccc3n2)CC1 [Example 22-12, 1-[4-(cyanomethyl)-1-(imidazo[1,2-a]pyridin-2-ylmethyl)piperidin-4-yl]-3-[(2-fluoropyridin-4-yl)amino]-1H-pyrazole-4-carboxamide]",IC50,JAK2,> 1500 nM
same,IC50,JAK1,124 nM
"CN(CCS(C)(=O)=O)C1CCC(CC#N)(n2cc(C(N)=O)c(Nc3ccc(F)cc3)n2)CC1 (stereo not drawn) [Example 40-72, Cis or trans 1-[1-(cyanomethyl)-4-{methyl[2-(methylsulfonyl)ethyl]amino}cyclohexyl]-3-[(4-fluorophenyl)amino]-1H-pyrazole-4-carboxamide]",IC50,JAK2,37 nM
same,IC50,JAK1,1 nM
"CC(C)c1ccccc1NC(=O)N1CC(CC#N)(n2cc(C(N)=O)c(Nc3ccccc3)n2)C1 [Example 38-8, 1-[3-(cyanomethyl)-1-{[2-(1-methylethyl)phenyl]carbamoyl}azetidin-3-yl]-3-(phenylamino)-1H-pyrazole-4-carboxamide]",IC50,JAK2,428 nM
same,IC50,JAK1,14 nM
"CC(C)(C)OC(=O)N1CC[C@@](CC#N)(n2cc(C(N)=O)c(Nc3ccc(F)cc3)n2)[C@H](F)C1 (single isomer, unassigned) [Example 47-3, tert-butyl (3R,4S or 3S,4R)-4-{4-carbamoyl-3-[(4-fluorophenyl)amino]-1H-pyrazol-1-yl}-4-(cyanomethyl)-3-fluoropiperidine-1-carboxylate]",IC50,JAK2,32 nM
same,IC50,JAK1,2 nM
"N#CCC1(n2cc(C(N)=O)c(Nc3ccnc(F)c3)n2)CCN(Cc2ccc3[nH]ccc3c2)CC1 [Example 22-20, 1-[4-(cyanomethyl)-1-(1H-indol-5-ylmethyl)piperidin-4-yl]-3-[(2-fluoropyridin-4-yl)amino]-1H-pyrazole-4-carboxamide]",IC50,JAK2,31 nM
same,IC50,JAK1,2 nM
"N#CCC1(n2cc(C(N)=O)c(Nc3ccc(F)cc3)n2)CCN(C(=O)OC2CCOCC2)CC1 [Example 30-47, tetrahydro-2H-pyran-4-yl 4-{4-carbamoyl-3-[(4-fluorophenyl)amino]-1H-pyrazol-1-yl}-4-(cyanomethyl)piperidine-1-carboxylate]",IC50,JAK2,103 nM
same,IC50,JAK1,3 nM
"N#CCC1(n2cc(C(N)=O)c(Nc3ccnc(F)c3)n2)CCC(NCc2ccc(O)cc2)CC1 (stereo not drawn) [Example 41-26, Cis or trans 1-{1-(cyanomethyl)-4-[(4-hydroxybenzyl)amino]cyclohexyl}-3-[(2-fluoropyridin-4-yl)amino]-1H-pyrazole-4-carboxamide]",IC50,JAK2,759 nM
same,IC50,JAK1,16 nM
"N#CCC1(n2cc(C(N)=O)c(Nc3ccc(S(=O)(=O)C(F)F)cc3)n2)CCC(NC2CCOCC2)CC1 (stereo not drawn) [Example 40-66, Cis or trans 1-[1-(cyanomethyl)-4-(tetrahydro-2H-pyran-4-ylamino)cyclohexyl]-3-({4-[(difluoromethyl)sulfonyl]phenyl}amino)-1H-pyrazole-4-carboxamide]",IC50,JAK2,> 1500 nM
same,IC50,JAK1,344 nM
"COC1CN(C2CCC(CC#N)(n3cc(C(N)=O)c(Nc4ccc(F)cc4)n3)CC2)C1 (stereo not drawn) [Example 40-74, Cis or trans 1-[1-(cyanomethyl)-4-(3-methoxyazetidin-1-yl)cyclohexyl]-3-[(4-fluorophenyl)amino]-1H-pyrazole-4-carboxamide]",IC50,JAK2,35 nM
same,IC50,JAK1,1 nM
"N#CCC1(n2cc(C(N)=O)c(Nc3ccnc(F)c3)n2)CCN(Cc2cccc(F)n2)CC1 [Example 22-32, 1-{4-(cyanomethyl)-1-[(6-fluoropyridin-2-yl)methyl]piperidin-4-yl}-3-[(2-fluoropyridin-4-yl)amino]-1H-pyrazole-4-carboxamide]",IC50,JAK2,83 nM
same,IC50,JAK1,2 nM
"N#CCC1(n2cc(C(N)=O)c(Nc3ccc(F)cc3)n2)CCC(Nc2ccccn2)CC1 (stereo not drawn) [Example 40-12, Cis or trans 1-[1-(cyanomethyl)-4-(pyridin-2-ylamino)cyclohexyl]-3-[(4-fluorophenyl)amino]-1H-pyrazole-4-carboxamide]",IC50,JAK2,73 nM
same,IC50,JAK1,2 nM
"CC(C)(C)OC(=O)N1CCC(CC#N)(n2cc(C(N)=O)c(Nc3ccnnc3)n2)CC1 [Example 12-6, tert-butyl 4-[4-carbamoyl-3-(pyridazin-4-ylamino)-1H-pyrazol-1-yl]-4-(cyanomethyl)piperidine-1-carboxylate]",IC50,JAK2,15 nM
same,IC50,JAK1,0.4 nM
"N#CCC1(n2cc(C(N)=O)c(Nc3ccccc3)n2)CN(C(=O)OC2CCCCC2)C1 [Example 30-57, cyclohexyl 3-[4-carbamoyl-3-(phenylamino)-1H-pyrazol-1-yl]-3-(cyanomethyl)azetidine-1-carboxylate]",IC50,JAK2,466 nM
same,IC50,JAK1,14 nM
"CC(O)c1ccc(Nc2nn(C3(CC#N)CCN(C(=O)OC(C)(C)C)CC3)cc2C(N)=O)cn1 (stereo not shown) [Example 9-7, tert-butyl 4-(4-carbamoyl-3-(6-(1-hydroxyethyl)pyridin-3-ylamino)-1H-pyrazol-1-yl)-4-(cyanomethyl)piperidine-1-carboxylate]",IC50,JAK2,2 nM
same,IC50,JAK1,0.5 nM
"CC(C)(C)OC(=O)N1CCC(CC#N)(n2cc(C(N)=O)c(Nc3cccc(Cn4nnc5ccccc54)c3)n2)CC1 [Example 2-4, tert-butyl 4-(3-{[3-(1H-benzotriazol-1-ylmethyl)phenyl]amino}-4-carbamoyl-1H-pyrazol-1-yl)-4-(cyanomethyl)piperidine-1-carboxylate]",IC50,JAK2,18 nM
same,IC50,JAK1,0.5 nM
"N#CCC1(n2cc(C(N)=O)c(Nc3ccc(F)cc3)n2)CCN(c2cccnc2F)CC1 [Example 3-51, 1-[4-(cyanomethyl)-1-(2-fluoropyridin-3-yl)piperidin-4-yl]-3-[(4-fluorophenyl)amino]-1H-pyrazole-4-carboxamide]",IC50,JAK2,0.6 nM
same,IC50,JAK1,0.06 nM
"N#CCC1(n2cc(C(N)=O)c(Nc3ccnc(F)c3)n2)CCN(Cc2ccon2)CC1 [Example 22-31, 1-[4-(cyanomethyl)-1-(isoxazol-3-ylmethyl)piperidin-4-yl]-3-[(2-fluoropyridin-4-yl)amino]-1H-pyrazole-4-carboxamide]",IC50,JAK2,47 nM
same,IC50,JAK1,1 nM
"N#CCC1(n2cc(C(N)=O)c(Nc3ccnc(F)c3)n2)CCC(NC2CCCCC2)CC1 (stereo not drawn) [Example 40-23, Cis or trans 1-[1-(cyanomethyl)-4-(cyclohexylamino)cyclohexyl]-3-[(2-fluoropyridin-4-yl)amino]-1H-pyrazole-4-carboxamide]",IC50,JAK2,237 nM
same,IC50,JAK1,2 nM
"Cc1ccc(NC(=O)N2CC(CC#N)(n3cc(C(N)=O)c(Nc4ccccc4)n3)C2)cc1Cl [Example 38-13, 1-{1-[(3-chloro-4-methylphenyl)carbamoyl]-3-(cyanomethyl)azetidin-3-yl}-3-(phenylamino)-1H-pyrazole-4-carboxamide]",IC50,JAK2,339 nM
same,IC50,JAK1,21 nM
"CC(C)(C)OC(=O)N1CCC(CC#N)(n2cc(C(N)=O)c(Nc3ccc(F)nc3)n2)CC1 [Example 12-5, tert-butyl 4-{4-carbamoyl-3-[(6-fluoropyridin-3-yl)amino]-1H-pyrazol-1-yl}-4-(cyanomethyl)piperidine-1-carboxylate]",IC50,JAK2,7 nM
same,IC50,JAK1,0.8 nM
"CC(C)(C)OC(=O)N1CCC(CC#N)(n2cc(C(N)=O)c(Nc3cccnn3)n2)CC1 [Example 13-6, tert-butyl 4-(4-carbamoyl-3-(pyridazin-3-ylamino)-1H-pyrazol-1-yl)-4-(cyanomethyl)piperidine-1-carboxylate]",IC50,JAK2,179 nM
same,IC50,JAK1,26 nM
"N#CCC1(n2cc(C(N)=O)c(Nc3ccnc(F)c3)n2)CCC(Nc2cc(F)ccc2F)CC1 (stereo not drawn) [Example 40-10, Cis or trans 1-{1-(cyanomethyl)-4-[(2,5-difluorophenyl)amino]cyclohexyl}-3-[(2-fluoropyridin-4-yl)amino]-1H-pyrazole-4-carboxamide]",IC50,JAK2,355 nM
same,IC50,JAK1,14 nM
